Source: US20100249234A1, “METHODS OF REDUCING VIRULENCE IN BACTERIA” (UWM RESEARCH FOUNDATION, INC., priority 2007, published 2010)

Experiments:
Format in all cases: cell-based, Dickeya dadantii 3937 (Ech3937)
[1] = tested on: hrpA promoter; test: hrpA promoter activity, GFP reporter plasmid phrpA, flow cytometry (FACS); conditions: for expression of hrpA, GFP intensity (Mean Fluorescence Intensity), Ech3937 carrying phrpA: MM + 0.1 mM compound
Protocol: FACS analysis of promoter activity of dspE, hrpA, hrpL, hrpN, and hrpS was carried out as described (Peng et al., 2006). Briefly, the wild-type Ech3937 and the mutant strains carrying the promoter reporter plasmid were grown on LB broth at 28° C. overnight and transferred to appropriate media. For FACS analysis, samples were collected by centrifugation, washed with 1× phosphate buffer saline (PBS) at 13,000 rpm for 1 min, and re-suspended in 1×PBS to ca 10^6 CFU/ml prior to being run in a FACS Calibur flow cytometer (BD Biosciences, CA). Three replicates were performed for each treatment.
To identify potential compounds that repress activation of T3SS, analogs and isomers of TCA and intermediates of salicylic acid and phenypropanoid biosynthesis pathways in plants were further screened for their effect on Ech3937 hrpA expression by flow cytometry (Table 9). A green fluorescent protein (GFP) reporter plasmid phrpA (pProbe-AT derivative with PCR fragment containing hrpA promoter region) was constructed, resulting in a transcriptional fusion of hrpA promoter with GFP gene. Bacterial cells containing phrpA plasmid were grown in MM supplemented with 0.1 mM of each compound. GFP intensity, which is a measurement of hrpA promoter activity, was measured by flow cytometry.

[2] = tested on: hrpN promoter; test: hrpN promoter activity, GFP reporter plasmid phrpN, flow cytometry (FACS)
[3] = tested on: Ech3937; test: Growth of Ech3937 in MM supplemented with compound; conditions: 0.05, 0.1 and 0.2 mM in MM (FIGS. 2A, 2B)
Description: Phenolic compounds constitute an important class of organic substances produced by plants. The phenolic compound SA is a signaling molecule that plays a role in host defenses. OCA and TCA are the biosynthetic precursors of SA and are also reported to induce the expression of defense-related genes in plants. OCA, TCA, and SA were examined to elucidate their effects on the expression of T3SS genes. The expression of the T3SS gene hrpN was examined in MM and MM supplemented with OCA, TCA, and SA, at concentrations of 0.05, 0.1, and 0.2 mM, respectively. FIGS. 2A and 2B show the promoter activities of hrpN in Dickeya dadantii 3937 (Ech3937) grown in MM and MM supplemented with 0.05, 0.1, and 0.2 mM OCA, TCA, and SA at 12 h (FIG. 2A) and 24 h (FIG. 2B) post-inoculation. GFP intensity was determined on gated populations of bacterial cells by flow cytometry and analyzed with the Cell Quest software (BD Biosciences, San Jose, Calif.). The growth of Ech3937 in MM supplemented with different concentrations of OCA, TCA and SA was recorded. Compared with MM alone, the average GFP fluorescence intensity of bacterial cells of Ech3937 (phrpN) was increased approximately 4-fold when 0.05 mM of OCA and TCA were added to the medium (FIGS. 2A, 2B).
The expression of the T3SS gene hrpA was further examined in MM and MM supplemented with PCA at concentrations of 0.001, 0.005, 0.01, 0.05 and 0.1 mM respectively. FIGS. 16A and 16B show the promoter activities of hrpA in Dickeya dadantii 3937 (Ech3937) grown in minimum medium (MM) and MM supplemented with different amount of p-coumaric acid (PCA) at 12 h (FIG. 16A) and 24 h (FIG. 16B) post-inoculation. GFP intensity was determined on gated populations of bacterial cells by flow cytometry and analyzed with the Cell Quest software (BD Biosciences, San Jose, Calif.). The growth of Ech3937 in MM supplemented with different concentrations of PCA was recorded. Compared with MM alone, the average GFP fluorescence intensity of bacterial cells of Ech3937 (phrpA) was reduced more than 4-fold when 0.05 and 0.1 mM of PCA were added to the medium (FIGS. 16A, 16B).

## O=C(O)[C@@H]1C[C@H]1c1ccccc1 (relative stereo) [trans-2-Phenylcyclopropane-1-carboxylic acid]
[1]; 6 h (Table 9)
  expression of hrpA, GFP intensity (Mean Fluorescence Intensity), Ech3937 carrying phrpA: 7.2 ± 0.1
[1]; 12 h (Table 9)
  expression of hrpA, GFP intensity (Mean Fluorescence Intensity), Ech3937 carrying phrpA: 67.0 ± 18.4
[1]; 24 h (Table 9)
  expression of hrpA, GFP intensity (Mean Fluorescence Intensity), Ech3937 carrying phrpA: 84.0 ± 14.3

## O=C(O)C=Cc1ccccc1Cl [2-Chlorocinnamic acid]
[1]; 6 h (Table 9)
  expression of hrpA, GFP intensity (Mean Fluorescence Intensity), Ech3937 carrying phrpA: 25.7 ± 0.2
[1]; 12 h (Table 9)
  expression of hrpA, GFP intensity (Mean Fluorescence Intensity), Ech3937 carrying phrpA: 166.2 ± 17.8
[1]; 24 h (Table 9)
  expression of hrpA, GFP intensity (Mean Fluorescence Intensity), Ech3937 carrying phrpA: 319.8 ± 48.3

## Cc1ccccc1C=CC(=O)O [2-Methylcinnamic acid]
[1]; 6 h (Table 9)
  expression of hrpA, GFP intensity (Mean Fluorescence Intensity), Ech3937 carrying phrpA: 22.8 ± 0.6
[1]; 12 h (Table 9)
  expression of hrpA, GFP intensity (Mean Fluorescence Intensity), Ech3937 carrying phrpA: 157.2 ± 11.7
[1]; 24 h (Table 9)
  expression of hrpA, GFP intensity (Mean Fluorescence Intensity), Ech3937 carrying phrpA: 342.5 ± 16.6

## OCC=Cc1ccccc1 [Cinnamyl alcohol]
[1]; MM + 0.1 mM compound (Table 9)
  effect on expression of hrpA (screen result): inhibitors of the expression of hrpA
[1]; 6 h (Table 9)
  expression of hrpA, GFP intensity (Mean Fluorescence Intensity), Ech3937 carrying phrpA: 6.3 ± 0.1
[1]; 12 h (Table 9)
  expression of hrpA, GFP intensity (Mean Fluorescence Intensity), Ech3937 carrying phrpA: 27.8 ± 5.0
[1]; 24 h (Table 9)
  expression of hrpA, GFP intensity (Mean Fluorescence Intensity), Ech3937 carrying phrpA: 53.8 ± 2.9

## O=C(O)CCc1ccccc1 [Hydrocinnamic acid]
[1]; 6 h (Table 9)
  expression of hrpA, GFP intensity (Mean Fluorescence Intensity), Ech3937 carrying phrpA: 13.7 ± 1.0
[1]; 12 h (Table 9)
  expression of hrpA, GFP intensity (Mean Fluorescence Intensity), Ech3937 carrying phrpA: 200.3 ± 35.8
[1]; 24 h (Table 9)
  expression of hrpA, GFP intensity (Mean Fluorescence Intensity), Ech3937 carrying phrpA: 213.5 ± 18.9

## COC(=O)/C=C/c1ccccc1 [Methyl trans-cinnamate]
[1]; 6 h (Table 9)
  expression of hrpA, GFP intensity (Mean Fluorescence Intensity), Ech3937 carrying phrpA: 9.7 ± 0.1
[1]; 12 h (Table 9)
  expression of hrpA, GFP intensity (Mean Fluorescence Intensity), Ech3937 carrying phrpA: 135.8 ± 8.1
[1]; 24 h (Table 9)
  expression of hrpA, GFP intensity (Mean Fluorescence Intensity), Ech3937 carrying phrpA: 219.2 ± 14.5

## O=C(O)COc1ccccc1 [Phenoxyacetic acid]
[1]; 6 h (Table 9)
  expression of hrpA, GFP intensity (Mean Fluorescence Intensity), Ech3937 carrying phrpA: 18.0 ± 3.1
[1]; 12 h (Table 9)
  expression of hrpA, GFP intensity (Mean Fluorescence Intensity), Ech3937 carrying phrpA: 222.7 ± 64.3
[1]; 24 h (Table 9)
  expression of hrpA, GFP intensity (Mean Fluorescence Intensity), Ech3937 carrying phrpA: 205.7 ± 11.8

## O=C(O)c1ccccc1O [SA, salicylic acid, reference compound]
[2]; 0.05, 0.1 and 0.2 mM in MM, 12 h and 24 h (FIGS. 2A, 2B)
  effect on GFP fluorescence intensity of Ech3937 (phrpN) compared with MM alone: did not result in increased GFP fluorescence intensity
[2]; MM + 0.2 μM compound, 12 h
  GFP Intensity of Ech3937 (phrpN): 53.7 ± 4.0
[2]; MM + 0.2 μM compound, 24 h
  GFP Intensity of Ech3937 (phrpN): 105 ± 28
[2]; MM + 0.5 μM compound, 12 h
  GFP Intensity of Ech3937 (phrpN): 49.5 ± 5.9
[2]; MM + 0.5 μM compound, 24 h
  GFP Intensity of Ech3937 (phrpN): 99.5 ± 18
[2]; MM + 5 μM compound, 12 h
  GFP Intensity of Ech3937 (phrpN): 49.9 ± 2.9
[2]; MM + 5 μM compound, 24 h
  GFP Intensity of Ech3937 (phrpN): 97.7 ± 9.0
[2]; MM + 10 μM compound, 12 h
  GFP Intensity of Ech3937 (phrpN): 52.0 ± 2.3
[2]; MM + 10 μM compound, 24 h
  GFP Intensity of Ech3937 (phrpN): 104 ± 3.1
[3]
  bacterial growth of Ech3937 in supplemented MM: No reduction of bacterial growth

## O=C(O)/C=C/c1cccc(O)c1 [m-Coumaric acid]
[1]; 6 h (Table 9)
  expression of hrpA, GFP intensity (Mean Fluorescence Intensity), Ech3937 carrying phrpA: 12.1 ± 0.0
[1]; 12 h (Table 9)
  expression of hrpA, GFP intensity (Mean Fluorescence Intensity), Ech3937 carrying phrpA: 133.0 ± 38.2
[1]; 24 h (Table 9)
  expression of hrpA, GFP intensity (Mean Fluorescence Intensity), Ech3937 carrying phrpA: 203.3 ± 9.6

## O=C(O)/C=C/c1cccnc1 [trans-3-(3-Pyridyl)acrylic acid]
[1]; 6 h (Table 9)
  expression of hrpA, GFP intensity (Mean Fluorescence Intensity), Ech3937 carrying phrpA: 13.1 ± 0.4
[1]; 12 h (Table 9)
  expression of hrpA, GFP intensity (Mean Fluorescence Intensity), Ech3937 carrying phrpA: 184.9 ± 35.6
[1]; 24 h (Table 9)
  expression of hrpA, GFP intensity (Mean Fluorescence Intensity), Ech3937 carrying phrpA: 204.0 ± 16.8

## O=C(O)/C=C/c1c[nH]c2ccccc12 [trans-3-indoleacrylic acid]
[1]; 6 h (Table 9)
  expression of hrpA, GFP intensity (Mean Fluorescence Intensity), Ech3937 carrying phrpA: 7.9 ± 0.2
[1]; 12 h (Table 9)
  expression of hrpA, GFP intensity (Mean Fluorescence Intensity), Ech3937 carrying phrpA: 23.9 ± 1.3
[1]; 24 h (Table 9)
  expression of hrpA, GFP intensity (Mean Fluorescence Intensity), Ech3937 carrying phrpA: 121.0 ± 6.2
